The text below walks through data of PubChem BioAssay (NCI).

Some test systems named below: CCRF-CEM leukemia; HT29 colon; MALME-3M melanoma; NCI-H23 lung; NCI-H522 lung; RPMI-8226 leukemia; SF-268 CNS; SK-OV-3 ovarian; SR leukemia; TK-10 renal.
Common to all, as to test: growth of human tumour cells (NCI), 48 h

Several values for one entry are separate records, joined by “and”; a condition that tells them apart may be missing. Identical values can stand only once.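 48-hour exposure; five concentrations; linearly interpolated endpoints. At the GI50, growth is halved. TGI marks complete inhibition of growth.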

For `Nc1nc(N)c2cc(CNc3ccc(Cl)c(Cl)c3)ccc2n1`, the GI50 in the assay with CCRF-CEM leukemia is 0.395 µM; with HT29 colon, 0.287 µM; in the assay with MALME-3M melanoma, 1.21 µM; with NCI-H23 lung, 0.71 µM; in the assay on NCI-H522 lung, 0.567 µM; in the assay with RPMI-8226 leukemia, 1.61 µM. Moreover, the GI50 with SF-268 CNS is 0.544 µM; with SK-OV-3 ovarian, 1.28 µM; in the assay with SR leukemia, 0.445 µM; in the assay with TK-10 renal, 1.42 µM. The TGI is 1.88 µM in the assay on CCRF-CEM leukemia; 1.65 µM in the assay on HT29 colon; 2.77 µM in the assay on MALME-3M melanoma; 2.11 µM in the assay on NCI-H23 lung; 2.01 µM in the assay with NCI-H522 lung; 3.62 µM in the assay on RPMI-8226 leukemia. Also, the TGI in the assay with SF-268 CNS is 1.85 µM; in the assay with SK-OV-3 ovarian, 2.53 µM; with SR leukemia, 1.93 µM; in the assay with TK-10 renal, 2.73 µM.

Consider `Cc1cccc(CN(C)c2ccc(CO)c(Cl)c2)c1`, for which the GI50 in the assay with CCRF-CEM leukemia was 27 µM; with HT29 colon it was 11.9 µM; with MALME-3M melanoma, 19.5 µM; with NCI-H23 lung, 14.6 µM; with NCI-H522 lung it was 17.6 µM; in the assay with RPMI-8226 leukemia it was 14.4 µM. For the same molecule, the GI50 in the assay on SF-268 CNS is 33.7 µM; with SK-OV-3 ovarian, 12.6 µM; with SR leukemia it was 24.7 µM; with TK-10 renal it was 0.267 µM. In addition, the TGI was above 100 µM in the assay with CCRF-CEM leukemia; above 55.3 µM in the assay on HT29 colon; 49.8 µM with MALME-3M melanoma; above 73.1 µM in the assay on NCI-H23 lung; 57.8 µM in the assay on NCI-H522 lung; above 69.3 µM in the assay with RPMI-8226 leukemia. Besides, the TGI in the assay with SF-268 CNS is above 100 µM; in the assay with SK-OV-3 ovarian it was 46.8 µM; in the assay with SR leukemia it was above 73.8 µM; with TK-10 renal it was 1.56 µM.

With `O=C1NC(=NCC(CO)c2ccccc2)S/C1=C\c1ccc2ncccc2c1` (centres undefined), the GI50 was 19.5 µM with CCRF-CEM leukemia; 19.7 µM with HT29 colon; above 25 µM with MALME-3M melanoma; 12.1 µM with NCI-H23 lung; above 14.1 µM in the assay with NCI-H522 lung; 14.6 µM in the assay with RPMI-8226 leukemia. Moreover, the GI50 in the assay with SF-268 CNS was above 16.9 µM; in the assay with SK-OV-3 ovarian, above 25 µM; in the assay with SR leukemia it was 4.49 µM; in the assay on TK-10 renal, above 21.8 µM. For the same molecule, the TGI in the assay on CCRF-CEM leukemia, in the assay with HT29 colon, in the assay with MALME-3M melanoma, in the assay with NCI-H23 lung, in the assay with NCI-H522 lung and in the assay on RPMI-8226 leukemia was above 25 µM throughout. The TGI in the assay with SF-268 CNS is above 25 µM; in the assay on SK-OV-3 ovarian it was above 25 µM; in the assay with SR leukemia, above 22.7 µM; in the assay with TK-10 renal, above 25 µM.

Consider `CC1=C(N2CC2)C(=O)C(CO)=C(N2CC2)C1=O`, for which the GI50 was 0.000612 µM with CCRF-CEM leukemia; 0.00143 µM in the assay with NCI-H23 lung; 0.0112 µM with NCI-H522 lung; 0.00102 µM in the assay on RPMI-8226 leukemia; 0.00666 µM with SF-268 CNS; 0.186 µM in the assay with SK-OV-3 ovarian. Moreover, the GI50 in the assay with TK-10 renal is 0.0405 µM. Also, the TGI is 0.148 µM and 0.435 µM with HT29 colon; 0.116 µM in the assay with MALME-3M melanoma; 0.0385 µM and 0.0489 µM in the assay with NCI-H522 lung; 0.0147 µM and 0.0824 µM in the assay with RPMI-8226 leukemia; 1.81 µM with SK-OV-3 ovarian; above 49 µM in the assay on SR leukemia. Moreover, the TGI with TK-10 renal is 0.721 µM and 0.309 µM.

With `CCOP(=O)(CCP(=O)(OCC)OCC)OCC.C[CH2][Sn]([Cl])([Cl])[CH2]C`, the GI50 in the assay with CCRF-CEM leukemia was 15.5 µM; in the assay on HT29 colon it was 62.7 µM; with MALME-3M melanoma it was 15.3 µM; with NCI-H23 lung it was 19.9 µM; in the assay with NCI-H522 lung, 1.64 µM; in the assay on RPMI-8226 leukemia, 22.7 µM. The GI50 in the assay with SF-268 CNS is 38.8 µM; with SK-OV-3 ovarian, 99.3 µM; with SR leukemia it was 38.2 µM; in the assay with TK-10 renal, 30.6 µM. The TGI in the assay with CCRF-CEM leukemia is 50.5 µM; with HT29 colon, above 93.6 µM; with MALME-3M melanoma it was 30.6 µM; with NCI-H23 lung, 49 µM; in the assay with NCI-H522 lung, 4.97 µM; with RPMI-8226 leukemia, 67.2 µM. For the same molecule, the TGI is above 66.8 µM in the assay on SF-268 CNS, above 100 µM in the assay with SK-OV-3 ovarian, above 100 µM in the assay on SR leukemia and 52 µM in the assay on TK-10 renal.

`C=CCC(C(=O)OC)C1(C(=O)OC)c2[nH]c3ccccc3c2CCN1Cc1ccccc1` (centres undefined): the TGI in the assay with CCRF-CEM leukemia, in the assay with HT29 colon, in the assay on MALME-3M melanoma, in the assay on NCI-H23 lung, with NCI-H522 lung and in the assay with RPMI-8226 leukemia was above 100 µM each time. The TGI in the assay with SF-268 CNS, in the assay with SK-OV-3 ovarian, in the assay on SR leukemia and with TK-10 renal was above 100 µM in each case.

As for `COC1=C(OC)C(=O)C(/C=C(\C)C(=O)O)=C(C)C1=O`, the GI50 with CCRF-CEM leukemia is 67 µM; with HT29 colon, above 100 µM; with MALME-3M melanoma, above 100 µM; in the assay on NCI-H23 lung, above 100 µM; in the assay on NCI-H522 lung it was above 100 µM; in the assay with RPMI-8226 leukemia, above 100 µM. The GI50 in the assay with SF-268 CNS, with SK-OV-3 ovarian, in the assay on SR leukemia and with TK-10 renal was above 100 µM each time. The TGI in the assay with CCRF-CEM leukemia, with HT29 colon, in the assay on MALME-3M melanoma, with NCI-H23 lung, in the assay with NCI-H522 lung and in the assay with RPMI-8226 leukemia was above 100 µM in each case. For the same molecule, the TGI in the assay with SF-268 CNS, in the assay with SK-OV-3 ovarian, in the assay on SR leukemia and in the assay with TK-10 renal was above 100 µM in each case.

In the case of `CCCc1cc(=O)oc2c(C(=O)CC(C)C)c(O)c(CC=C(C)C)c(O)c12`, the GI50 was 4.97 µM in the assay with CCRF-CEM leukemia; 15.1 µM in the assay with HT29 colon; 9.89 µM in the assay on MALME-3M melanoma; 4.05 µM with NCI-H23 lung; 8.17 µM in the assay with NCI-H522 lung; 2.86 µM in the assay on RPMI-8226 leukemia. Besides, the GI50 is 11.2 µM in the assay with SF-268 CNS, 13.5 µM with SK-OV-3 ovarian, 16.2 µM with SR leukemia and 12.2 µM in the assay with TK-10 renal. Also, the TGI with CCRF-CEM leukemia was above 50 µM; in the assay on HT29 colon it was above 50 µM; with MALME-3M melanoma, 32.4 µM; in the assay with NCI-H23 lung, 45.8 µM; in the assay on NCI-H522 lung it was above 50 µM; in the assay on RPMI-8226 leukemia, 22.1 µM. Further, the TGI is above 50 µM with SF-268 CNS, 41.2 µM in the assay with SK-OV-3 ovarian, above 50 µM in the assay on SR leukemia and above 50 µM with TK-10 renal.
